Laboratory results published in patent publication US9783490B2, “Antimicrobial compounds, their synthesis and applications thereof” (The Secretary of State for Health, priority 2012, dated 2017).

What was measured:
[1] = tested on: bacteria; test: Minimum inhibitory concentration, bacterium not given; assay type: cell-based
Experimental: (§1) Antibacterial activity is reported as Minimum Inhibitory Concentration (MIC), i.e. the lowest concentration of the antimicrobial agent that will inhibit the growth of a microorganism after overnight incubation. Water-soluble ACK, NCK and BCK series of compounds are assayed in a modified micro-dilution broth format. Stock solutions are made by serially diluting the compounds using autoclaved Millipore water. Bacteria, to be tested are grown for about 6 hrs in the suitable media containing ˜10^9 cfu/mL (determined through dilution plate technique by spread plate method), which is then diluted to 10^5 cfu/mL using nutrient media. 50 μL of serially diluted compound is added to a 96 well plate containing 150 μL bacterial solutions. Two controls are made; one containing 150 μL of media and 50 μL of compound and the other containing 200 μL of bacterial solution. […] MIC value is determined by taking the average of triplicate O.D. values for each concentration and plotting it against concentration using Origin Pro 8.0 software. The data is then subjected to sigmoidal fitting. From the curve, MIC value is determined, as the point in the curve where the O.D. is similar to that of control having no bacteria. The MIC values and errors of independent experiments are reported as average and standard deviation of triplicates.

[2] = tested on: E. coli (MTCC 443); test: Minimum Inhibitory Concentration, micro-dilution broth; assay type: cell-based, Escherichia coli; settings: Drug sensitive bacteria
Experimental: (§2) Microorganisms and Culture Conditions: Bacterial strains, S. aureus (MTCC 737) and E. coli (MTCC 443) are purchased from MTCC (Chandigarh, India). MRSA (ATCC 33591), Pseudomonas aeruginosa (ATCC 4676), […]-lactamase producing and drug-resistant Klebsiella pneumonia (ATCC700603), Enterococcus faecium (ATCC 19634) and vancomycin resistant Enterococcus faecium (ATCC 51559) are obtained from ATCC (Rockville, Md., USA).
(§3) E. coli is cultured in Luria Bertani broth (10 g of tryptone, 5 g of yeast extract, and 10 g of NaCl in 1000 mL of sterile distilled water (pH −7) while S. aureus, Pseudomonas aeruginosa (ATCC 4676) and MRSA are grown in Yeast-dextrose broth (1 g of beef extract, 2 g of yeast extract, 5 g of peptone and 5 g of NaCl in 1000 mL of sterile distilled water). For all Enterococcus faecium, Brain Heart Infusion broth (BHI) is used. For solid media 5% agar was used along with above mentioned composition. K. pneumonia was grown in nutrient media (3 g of beef extract and 5 g of peptone in 1000 mL of sterile distilled water). The bacterial samples were freeze dried and stored at −80° C. 5 μl of these stocks were added to 3 mL of the nutrient broth and the culture was grown for 6 h at 37° C. prior to the experiments.
as §1

[3] = tested on: human RBCs; test: Haemolytic activity (HC50); assay type: cell-based
Experimental: Erythrocytes are isolated from freshly drawn, heparinized human blood and re-suspended to 5 vol % in PBS (pH 7.4). In a 96-well microtiter plate, 150 μl of erythrocyte suspension is added to 50 μl of serially diluted compound. Two controls are made, one without compound and other with 50 μl of 1 vol % solution of Triton X-100. The plate is incubated for about 1 hr at a temperature of about 37° C. The plate is then centrifuged at 3,500 rpm for about 5 min, 100 μl of the supernatant from each well is transferred to a fresh microtiter plate, and absorbance at 540 nm is measured. Percentage of hemolysis is determined as (A−A0)/(Atotal−A0)×100, where A is the absorbance of the test well, A0 the absorbance of the negative controls (without compound), and A total the absorbance of 100% hemolysis wells (with Triton X-100), when absorbance is read at 540 nm.
Toxicity studies of the compounds are carried out on freshly drawn human RBCs. Toxicity of the antimicrobial compounds of the present disclosure is defined by their HC50 values illustrated in Table 3, i.e. the concentration of compound at which 50% of the blood cells are lysed. Haemolytic studies conducted herein illustrates that the antimicrobial compounds provided by the instant disclosure are selective towards drug sensitive bacteria and drug resistant bacteria over human RBCs, thus establishing the non-toxicity of the present compounds.

[4] = tested on: S. aureus (MTCC 737); test: Minimum Inhibitory Concentration, micro-dilution broth; assay type: cell-based, Staphylococcus aureus; settings: Drug sensitive bacteria
Experimental: as §2, §3, §1

[5] = tested on: Pseudomonas aeruginosa (ATCC 4676); test: as above; assay type: cell-based; settings: Drug sensitive bacteria
Experimental: as §2, §3, §1

[6] = tested on: vancomycin resistant Enterococcus faecium (ATCC 51559); test: as above; assay type: cell-based; settings: Drug resistant bacteria
Experimental: as §2, §3, §1

[7] = tested on: Enterococcus faecium (ATCC 19634); test: as above; assay type: cell-based
Experimental: as §2, §3, §1

[8] = tested on: drug-resistant Klebsiella pneumonia (ATCC700603); test: as above; assay type: cell-based; settings: Drug resistant bacteria
Experimental: as §2, §3, §1

[9] = tested on: MRSA (ATCC 33591); test: as above; assay type: cell-based, Methicillin resistant S. aureus
Experimental: as §2, §3, §1

## Lys-N-octylaminodecane [Dec-CK-8]
[1]
  active concentration against all bacteria: below 5.6 μg/ml
[2]
  Minimum Inhibitory Concentration E. coli: 3.1 µg/mL
[3]
  HC50: 82 µg/mL
  HC50 values: 82 µg/mL
[4]
  Minimum Inhibitory Concentration S. aureus: 3.1 µg/mL
[5]
  Minimum Inhibitory Concentration P. aeruginosa: 4.2 µg/mL
[6]
  Minimum Inhibitory Concentration VRE: 3.3 µg/mL
[7]
  MIC value against E. faecium: 3 µg/mL
[7]; Drug sensitive bacteria
  Minimum Inhibitory Concentration E. faecium: 3 µg/mL
[8]
  Minimum Inhibitory Concentration K. pneumonia: 5.6 µg/mL
[9]
  MIC value against methicillin-resistant S. aureus: 3 µg/mL
[9]; Drug resistant bacteria
  Minimum Inhibitory Concentration MRSA: 3 µg/mL
